# Data taken from publication PMC3405817 (Evidence-based Complementary and Alternative Medicine : eCAM, 2012).
# Tests used:
# [1] = test system: human promonocytic HL-CZ cells; test: Cell viability assay (trypan blue), HL-CZ cells; details: 48 hours, trypan blue staining
# [2] = Cell viability assay (trypan blue), BHK-21 cells; details: hamster, CC50 BHK-21, BHK-21 cells, trypan blue staining
# BHK-21 cells = test: Cell viability assay (trypan blue), BHK-21 cells; details: BHK-21 cells, 48 hours, trypan blue staining
# [3] = Cell viability assay (trypan blue), HL-CZ cells; details: human, CC50 HL-CZ, trypan blue staining
# JEV [4] = test: Virus attachment assay (4°C, BHK-21 monolayer); assay type: cell-based; details: Japanese encephalitis virus; JEV 120 pfu, 4°C 1 h on BHK-21 monolayer, residual infectivity by plaque assay
# Procedure: After 3-day incubation at 37°C in a 5% CO2 incubator, plaques were stained, as described in plaque assay.
# JEV [5] = test: Virucidal activity assay; assay type: cell-based; details: Japanese encephalitis virus; JEV 10^5 pfu preincubated 60 min at 4°C, 1000-fold dilution, residual infectivity on BHK-21
# Procedure: Virucidal assay was based on prior reports. […] A 1000-fold dilution of each extract/virus or compound/virus mixture was added onto BHK-21 cell monolayer in 6-well plates.
# [6] = test system: virulent JEV strain Beijing-1; test: Mouse protection assay against lethal JEV challenge; assay type: in vivo; details: BALB/c mice, i.c. JEV 1 × 10^5 pfu, 1 mg/kg i.c. at 2, 24, 48 h after infection
# Procedure: Groups (n = 10) of 2-week-old BALB/c mice were intracerebrally infected with 1 × 10^5 pfu of virulent JEV strain Beijing-1 then underwent three intracerebral treatments with 30 μg/100 μL of I. indigotica extract or marker compound (1 mg/kg of body weight) using 100 μL syringes at 2, 24, and 48 h after infection. Two additional groups were infected with JEV and received PBS or DMSO (0.05%) treatment as solvent controls. Survival rates were monitored every day for one week.
# JEV [7] = test: Virus yield in JEV-infected HL-CZ cells by plaque assay; details: 10 μg/mL, JEV MOI 0.5, after 24 h incubation
# JEV [8] = test: Plaque reduction and time-of-addition assay in BHK-21 cells; details: Japanese encephalitis virus
# [9] = BHK-21, 1 h, read-out: IC50 of posttreatment
# [10] = BHK-21, 1 h, read-out: IC50 of simultaneous treatment
# [11] = BHK-21, read-out: IC50 of pretreatment
Compound,CC50 HL-CZ [1] [µg/mL],CC50 at 48 h [2] [µg/mL],CC50 BHK-21 (BHK-21 cells) [µg/mL],CC50 at 48 h [3] [µg/mL],IC50 (JEV [4]) [µg/mL],IC50 (JEV [5]) [µg/mL],Survival rate on Day 6 after infection [6] [%],CC50 BHK-21 (BHK-21 cells; listed as indigo) [µg/mL],virus yield reduced (JEV [7]),IC50 (JEV [8]; [9]) [µg/mL],IC50 (JEV [8]; [10]) [µg/mL],IC50 (JEV [8]; [11]) [µg/mL]
"O=c1[nH]c2ccccc2o1 [2-Benzoxazolinone, 2-benzoxazolinone]",67.33 ± 10.2,< 25,19.92 ± 1.57,–,–,–,–,–,–,–,–,–
"Nc1ncnc2c1ncn2[C@@H]1O[C@H](CO)[C@@H](O)[C@H]1O [Adenosine, adenosine]",15.38 ± 1.05,< 25,24.10 ± 2.57,< 25,–,–,–,–,–,–,–,–
"C=C(C)[C@@H]1CC[C@]2(CO)CC[C@]3(C)[C@H](CC[C@@H]4[C@@]5(C)CC[C@H](O)C(C)(C)[C@@H]5CC[C@]43C)[C@@H]12 [Betulin, betulin]",2.10 ± 0.78,< 25,13.30 ± 2.58,–,–,–,–,–,–,–,–,–
"O=C1/C(=C2\Nc3ccccc3C2=O)Nc2ccccc21 [Indigo, indigo]",–,–,86.88 ± 3.72,99.41 ± 0.54,5.15 ± 0.18,3.03 ± 3.18,50,26.88,approximately 40%,> 50,37.5 ± 3.18,11.79 ± 0.1
"O=C1Nc2ccccc2/C1=C1/Nc2ccccc2C1=O [Indirubin, indirubin]",–,57.5,>100,64.9 ± 1.08,5.1 ± 1.32,0.47 ± 2.83,70,–,approximately 40%,> 50,13.7 ± 2.83,23.5 ± 0.89
"C=C(C)[C@@H]1CC[C@]2(C)CC[C@]3(C)[C@H](CC[C@@H]4[C@@]5(C)CC[C@H](O)C(C)(C)[C@@H]5CC[C@]43C)[C@@H]12 [Lupeol, lupeol]",3.44 ± 1.17,–,9.53 ± 1.32,–,–,–,–,–,–,–,–,–
"O=C1c2ccccc2-n2c1nc1ccccc1c2=O [Tryptathrin, tryptanthrin]",1.74 ± 0.34,–,4.57 ± 0.26,–,–,–,–,–,–,–,–,–
